We go through four compounds from PubChem BioAssay AID1259407 (Chemical Carcinogenesis Research Information System (CCRIS), 2018).

Active and inactive are the calls of the source. How the calls were made is not given here.

This data set relates to CCRIS mutagenicity, Ames/micronucleus/aberration tests. Briefly: CCRIS mutagenicity studies.
Where [1] appears, read: Test System: AMES SALMONELLA TYPHIMURIUM, Strain/Indicator: TA98, Metabolic Activation: NONE, Method: PREINCUBATION
The mark [2] stands for this setting: Test System: AMES SALMONELLA TYPHIMURIUM, Strain/Indicator: TA100, Metabolic Activation: NONE, Method: PREINCUBATION
[3] abbreviates: Test System: AMES SALMONELLA TYPHIMURIUM, Strain/Indicator: TA1535, Metabolic Activation: NONE, Method: PREINCUBATION
The mark [4] stands for this setting: Test System: AMES SALMONELLA TYPHIMURIUM, Strain/Indicator: TA1537, Metabolic Activation: NONE, Method: PREINCUBATION

For the compound `CN1C(=O)C(O)CC1c1cccnc1` (stereo unspecified), the mutagenic call under setting [1] is “inactive; negative”; the mutagenic call (Test System: AMES SALMONELLA TYPHIMURIUM, Strain/Indicator: TA98, Metabolic Activation: RAT, LIVER, S-9, AROCLOR 1254 (5%), Method: PREINCUBATION) was “inactive; negative”; the mutagenic call under setting [2] was “inactive; negative”; the mutagenic call (Test System: AMES SALMONELLA TYPHIMURIUM, Strain/Indicator: TA100, Metabolic Activation: RAT, LIVER, S-9, AROCLOR 1254 (5%), Method: PREINCUBATION) is “inactive; negative”; the mutagenic call under setting [3] is “inactive; negative”; the mutagenic call (Test System: AMES SALMONELLA TYPHIMURIUM, Strain/Indicator: TA1535, Metabolic Activation: RAT, LIVER, S-9, AROCLOR 1254 (5%), Method: PREINCUBATION) was “inactive; negative”. The mutagenic call is “inactive; negative” under setting [4]; “inactive; negative” (Test System: AMES SALMONELLA TYPHIMURIUM, Strain/Indicator: TA1537, Metabolic Activation: RAT, LIVER, S-9, AROCLOR 1254 (5%), Method: PREINCUBATION); “inactive; negative” (Test System: AMES SALMONELLA TYPHIMURIUM, Strain/Indicator: TA1538, Metabolic Activation: NONE, Method: PREINCUBATION); “inactive; negative” (Test System: AMES SALMONELLA TYPHIMURIUM, Strain/Indicator: TA1538, Metabolic Activation: RAT, LIVER, S-9, AROCLOR 1254 (5%), Method: PREINCUBATION).
With `CC/C(=C(/c1ccc(OCCN(C)C)cc1)c1ccc(OP(=O)(O)O)cc1)c1ccc(C(C)C)cc1`, the mutagenic call runs as follows: under setting [1], “inactive; negative”; (Test System: AMES SALMONELLA TYPHIMURIUM, Strain/Indicator: TA98, Metabolic Activation: RAT, LIVER, S-9, Method: PREINCUBATION) “inactive; negative”; under setting [2], “inactive; negative”; (Test System: AMES SALMONELLA TYPHIMURIUM, Strain/Indicator: TA100, Metabolic Activation: RAT, LIVER, S-9, Method: PREINCUBATION) “inactive; negative”; under setting [3], “inactive; negative”; (Test System: AMES SALMONELLA TYPHIMURIUM, Strain/Indicator: TA1535, Metabolic Activation: RAT, LIVER, S-9, Method: PREINCUBATION) “inactive; negative”. Moreover, the mutagenic call under setting [4] is “inactive; negative”; the mutagenic call (Test System: AMES SALMONELLA TYPHIMURIUM, Strain/Indicator: TA1537, Metabolic Activation: RAT, LIVER, S-9, Method: PREINCUBATION) was “inactive; negative”; the mutagenic call (Test System: E. COLI, Strain/Indicator: WP2 UVRA, Metabolic Activation: NONE, Method: PREINCUBATION) is “inactive; negative”; the mutagenic call (Test System: E. COLI, Strain/Indicator: WP2 UVRA, Metabolic Activation: RAT, LIVER, S-9, Method: PREINCUBATION) was “inactive; negative”.
As for `CCCN(CO)N=O`, the mutagenic call (Test System: CHINESE HAMSTER V-79, Strain/Indicator: V-79/OUABAIN, Metabolic Activation: NONE) is “active; positive”.
In the case of `O=[N+]([O-])c1ccc(/C=C/c2ccc([N+](=O)[O-])cc2S(=O)(=O)O)c(S(=O)(=O)O)c1`, the mutagenic call is “inactive; negative” under setting [1]; “inactive; negative” (Test System: AMES SALMONELLA TYPHIMURIUM, Strain/Indicator: TA98, Metabolic Activation: RAT LIVER S-9, PHENOBARBITAL AND BETA-NAPHTHOFLAVONE, Method: PREINCUBATION); “inactive; negative” under setting [2]; “inactive; negative” (Test System: AMES SALMONELLA TYPHIMURIUM, Strain/Indicator: TA100, Metabolic Activation: RAT LIVER S-9, PHENOBARBITAL AND BETA-NAPHTHOFLAVONE, Method: PREINCUBATION); “inactive; negative” under setting [3]; “inactive; negative” (Test System: AMES SALMONELLA TYPHIMURIUM, Strain/Indicator: TA1535, Metabolic Activation: RAT LIVER S-9, PHENOBARBITAL AND BETA-NAPHTHOFLAVONE, Method: PREINCUBATION). The mutagenic call under setting [4] is “inactive; negative”; the mutagenic call (Test System: AMES SALMONELLA TYPHIMURIUM, Strain/Indicator: TA1537, Metabolic Activation: RAT LIVER S-9, PHENOBARBITAL AND BETA-NAPHTHOFLAVONE, Method: PREINCUBATION) was “inactive; negative”; the mutagenic call (Test System: E.COLI, Strain/Indicator: WP2UVRA/PKM101, Metabolic Activation: NONE, Method: PREINCUBATION) was “inactive; negative”; the mutagenic call (Test System: E.COLI, Strain/Indicator: WP2UVRA/PKM101, Metabolic Activation: RAT LIVER S-9, PHENOBARBITAL AND BETA-NAPHTHOFLAVONE, Method: PREINCUBATION) is “inactive; negative”.
